Experimental findings from the kinase profiling compilation of Christmann-Franck et al. (2016) are described below.

FGFR1 (human), sequence (P11362 whole entry, looked up): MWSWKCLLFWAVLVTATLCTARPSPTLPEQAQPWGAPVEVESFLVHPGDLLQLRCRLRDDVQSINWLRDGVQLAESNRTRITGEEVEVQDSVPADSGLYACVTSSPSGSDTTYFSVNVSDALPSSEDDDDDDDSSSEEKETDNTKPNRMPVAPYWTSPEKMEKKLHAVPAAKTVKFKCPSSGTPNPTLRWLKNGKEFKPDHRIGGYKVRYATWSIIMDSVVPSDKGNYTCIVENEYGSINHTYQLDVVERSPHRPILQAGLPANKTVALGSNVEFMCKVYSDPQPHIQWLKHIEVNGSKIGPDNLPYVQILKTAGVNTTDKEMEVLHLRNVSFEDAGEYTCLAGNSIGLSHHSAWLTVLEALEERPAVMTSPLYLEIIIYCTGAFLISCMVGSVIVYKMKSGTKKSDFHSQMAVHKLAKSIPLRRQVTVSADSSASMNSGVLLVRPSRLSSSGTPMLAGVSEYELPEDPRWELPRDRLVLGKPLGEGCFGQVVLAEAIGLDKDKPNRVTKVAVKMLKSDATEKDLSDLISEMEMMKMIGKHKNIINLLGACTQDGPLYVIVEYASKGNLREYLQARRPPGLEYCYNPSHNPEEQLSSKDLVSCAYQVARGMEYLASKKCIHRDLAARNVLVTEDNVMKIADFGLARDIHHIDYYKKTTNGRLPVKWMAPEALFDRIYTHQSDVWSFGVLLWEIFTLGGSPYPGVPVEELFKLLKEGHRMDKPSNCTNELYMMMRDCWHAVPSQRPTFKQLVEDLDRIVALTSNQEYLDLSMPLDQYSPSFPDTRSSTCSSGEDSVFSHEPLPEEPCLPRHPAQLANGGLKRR

The target in one experiment is PIM1 (human) (UniProt P11309). The conditions noted are these: compound 10.0 µM.
PIM1 (human), sequence (P11309 whole entry, looked up): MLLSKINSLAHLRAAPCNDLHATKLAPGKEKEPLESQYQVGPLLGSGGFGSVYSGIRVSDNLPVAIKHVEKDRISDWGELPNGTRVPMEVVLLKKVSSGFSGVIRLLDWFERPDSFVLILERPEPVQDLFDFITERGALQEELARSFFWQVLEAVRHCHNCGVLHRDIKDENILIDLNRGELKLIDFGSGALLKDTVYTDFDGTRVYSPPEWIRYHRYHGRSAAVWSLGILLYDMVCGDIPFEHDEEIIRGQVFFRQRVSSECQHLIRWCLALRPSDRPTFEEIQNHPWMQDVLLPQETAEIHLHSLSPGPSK
Turning to `O=C1NC(=O)c2c1c1c3ccccc3n3c1c1c2c2ccccc2n1C1CCC3O1`, the inhibition stood at 100%.

`COc1cc2ncnc(Nc3ccc(F)c(Cl)c3)c2cc1OCCCN1CCOCC1`: the inhibition turned out to be 27%.

`c1ccc(-c2n[nH]cc2-c2ccnc3ccccc23)nc1` showed an inhibition of 11%.

The compound `Fc1ccc(Cl)cc1-c1nc(Nc2ccncc2)c2nccnc2n1` displayed an inhibition of 50%.

For `Cc1cc(I)ccc1Nc1c(C(=O)NOCC2CC2)cc(F)c(F)c1F`, the inhibition worked out at 0%.

Compound `Oc1ccc(-c2nc(-c3ccc(F)cc3)c(-c3ccncc3)[nH]2)cc1` yielded an inhibition of 9%.

In turn, `COc1nccc(-c2c(-c3ccc(F)cc3)ncn2[C@H]2CC[C@H](O)CC2)n1` registered an inhibition of 0%.

With `NC1N[N](=Cc2coc3ccccc3c2=O)->[Cu]([Cl])([Cl])[SH]=1`, the inhibition is 0%.

Consider `CC(C)[C@H](CO)Nc1nc(Nc2cccc(Cl)c2)c2ncn(C(C)C)c2n1`, for which the inhibition amounted to 0%.

Consider `CN(C)c1ccc(/C=C2\C(=O)Nc3ccccc32)cc1`, for which the inhibition came to 1%.

Take `O=C1NC(=O)c2c1c1c3ccccc3[nH]c1c1[nH]c3ccccc3c21`: the inhibition worked out at 95%.

Compound `COc1cc2ncn(-c3cc(OCc4ccccc4C(F)(F)F)c(C(N)=O)s3)c2cc1OC` showed an inhibition of 31%.

On to `Cc1ccc(NC(=O)c2cccc(N(C)C)c2)cc1NC(=O)c1ccc(O)cc1`, for which the inhibition is 2%.

As to `COc1cc2ncnc(Nc3ccc(Cl)cc3F)c2cc1OC`, the inhibition came to 0%.

In turn, `O=C1NC(=O)c2cc(Nc3ccc(F)cc3)c(Nc3ccc(F)cc3)cc21` displayed an inhibition of 60%.

With `N#C/C(=C\c1ccc(O)c(O)c1)C(N)=S`, the inhibition is 30%.

As for `CC(C)(C)n1nc(-c2cccc3ccccc23)c2c(N)ncnc21`, the inhibition was 9%.

Compound `C/C(O)=C(\C#N)C(=O)Nc1cc(Br)ccc1Br` came in with an inhibition of 23%.

The compound `COc1cc2c(Nc3ccc(NC(=O)c4ccccc4)cc3)ncnc2cc1OCCCN1CCOCC1` registered an inhibition of 8%.

Compound `Cc1cc(C)c(/C=C2\C(=O)Nc3ccccc32)[nH]1` showed an inhibition of 0%.

Take `N#CC(=C(\N)Sc1ccccc1N)/C(C#N)=C(/N)Sc1ccccc1N`: the inhibition worked out at 0%.

Turning to `CC[C@@H](CO)Nc1nc(NCc2ccccc2)c2ncn(C(C)C)c2n1`, the inhibition came out at 0%.

The compound `Nc1ncnc2[nH]nc(Nc3ccc(F)cc3)c12` showed an inhibition of 28%.

The compound `CC1=C(O)C(=O)[C@@H]2OC2C1=O` (some centres not stated) registered an inhibition of 5%.

For the next experiment, the target named is PRKAA1 (human) (UniProt Q13131). The note with it: compound 10.0 µM.
PRKAA1 (human), sequence (Q13131 whole entry, looked up): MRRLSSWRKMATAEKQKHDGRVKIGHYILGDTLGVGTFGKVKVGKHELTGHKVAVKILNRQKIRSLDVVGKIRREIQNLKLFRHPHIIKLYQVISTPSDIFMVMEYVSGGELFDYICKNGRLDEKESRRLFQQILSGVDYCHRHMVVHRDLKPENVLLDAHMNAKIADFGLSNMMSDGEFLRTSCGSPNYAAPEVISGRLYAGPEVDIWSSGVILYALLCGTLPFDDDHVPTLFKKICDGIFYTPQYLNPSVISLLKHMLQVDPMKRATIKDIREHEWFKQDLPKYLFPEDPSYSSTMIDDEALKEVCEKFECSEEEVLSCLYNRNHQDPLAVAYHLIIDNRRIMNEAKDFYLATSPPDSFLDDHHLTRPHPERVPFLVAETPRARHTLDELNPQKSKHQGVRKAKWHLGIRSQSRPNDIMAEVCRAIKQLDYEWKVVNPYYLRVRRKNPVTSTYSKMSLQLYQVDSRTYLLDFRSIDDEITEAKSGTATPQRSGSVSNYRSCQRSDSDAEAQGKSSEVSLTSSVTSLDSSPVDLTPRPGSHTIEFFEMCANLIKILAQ
Turning to `O=C1NC(=O)c2c1c1c3ccccc3n3c1c1c2c2ccccc2n1C1CCC3O1`, the inhibition stood at 65%.

`COc1cc2ncnc(Nc3ccc(F)c(Cl)c3)c2cc1OCCCN1CCOCC1` showed an inhibition of 0%.

Compound `c1ccc(-c2n[nH]cc2-c2ccnc3ccccc23)nc1` had an inhibition of 0%.

As to `Fc1ccc(Cl)cc1-c1nc(Nc2ccncc2)c2nccnc2n1`, the inhibition stood at 7%.

`Cc1cc(I)ccc1Nc1c(C(=O)NOCC2CC2)cc(F)c(F)c1F` had an inhibition of 0%.

`Oc1ccc(-c2nc(-c3ccc(F)cc3)c(-c3ccncc3)[nH]2)cc1` returned an inhibition of 0%.

The compound `COc1nccc(-c2c(-c3ccc(F)cc3)ncn2[C@H]2CC[C@H](O)CC2)n1` registered an inhibition of 0%.

For the compound `NC1N[N](=Cc2coc3ccccc3c2=O)->[Cu]([Cl])([Cl])[SH]=1`, the inhibition is 16%.

Take `CC(C)[C@H](CO)Nc1nc(Nc2cccc(Cl)c2)c2ncn(C(C)C)c2n1`: the inhibition was found to be 5%.

`CN(C)c1ccc(/C=C2\C(=O)Nc3ccccc32)cc1` showed an inhibition of 1%.

As for `O=C1NC(=O)c2c1c1c3ccccc3[nH]c1c1[nH]c3ccccc3c21`, the inhibition came to 60%.

The compound `COc1cc2ncn(-c3cc(OCc4ccccc4C(F)(F)F)c(C(N)=O)s3)c2cc1OC` yielded an inhibition of 7%.

Consider `Cc1ccc(NC(=O)c2cccc(N(C)C)c2)cc1NC(=O)c1ccc(O)cc1`, for which the inhibition stood at 0%.

Turning to `COc1cc2ncnc(Nc3ccc(Cl)cc3F)c2cc1OC`, the inhibition turned out to be 2%.

Compound `O=C1NC(=O)c2cc(Nc3ccc(F)cc3)c(Nc3ccc(F)cc3)cc21` returned an inhibition of 0%.

With `N#C/C(=C\c1ccc(O)c(O)c1)C(N)=S`, the inhibition is 0%.

With `CC(C)(C)n1nc(-c2cccc3ccccc23)c2c(N)ncnc21`, the inhibition turned out to be 1%.

`C/C(O)=C(\C#N)C(=O)Nc1cc(Br)ccc1Br` registered an inhibition of 0%.

Compound `COc1cc2c(Nc3ccc(NC(=O)c4ccccc4)cc3)ncnc2cc1OCCCN1CCOCC1` displayed an inhibition of 0%.

For the compound `Cc1cc(C)c(/C=C2\C(=O)Nc3ccccc32)[nH]1`, the inhibition worked out at 50%.

Regarding `N#CC(=C(\N)Sc1ccccc1N)/C(C#N)=C(/N)Sc1ccccc1N`, the inhibition was determined as 0%.

For `CC[C@@H](CO)Nc1nc(NCc2ccccc2)c2ncn(C(C)C)c2n1`, the inhibition was 0%.

The compound `Nc1ncnc2[nH]nc(Nc3ccc(F)cc3)c12` showed an inhibition of 0%.

`CC1=C(O)C(=O)[C@@H]2OC2C1=O` (some centres not stated) displayed an inhibition of 0%.

Another experiment has as its target FGFR1 (human) (UniProt P11362). The conditions noted are these: compound 10.0 µM.
`O=C1NC(=O)c2c1c1c3ccccc3n3c1c1c2c2ccccc2n1C1CCC3O1` returned an inhibition of 70%.

On to `COc1cc2ncnc(Nc3ccc(F)c(Cl)c3)c2cc1OCCCN1CCOCC1`, for which the inhibition was 13%.

`c1ccc(-c2n[nH]cc2-c2ccnc3ccccc23)nc1`: the inhibition amounted to 9%.

As to `Fc1ccc(Cl)cc1-c1nc(Nc2ccncc2)c2nccnc2n1`, the inhibition was found to be 37%.

`Cc1cc(I)ccc1Nc1c(C(=O)NOCC2CC2)cc(F)c(F)c1F` came in with an inhibition of 3%.

Regarding `Oc1ccc(-c2nc(-c3ccc(F)cc3)c(-c3ccncc3)[nH]2)cc1`, the inhibition amounted to 0%.

As for `COc1nccc(-c2c(-c3ccc(F)cc3)ncn2[C@H]2CC[C@H](O)CC2)n1`, the inhibition was determined as 0%.

`NC1N[N](=Cc2coc3ccccc3c2=O)->[Cu]([Cl])([Cl])[SH]=1` came in with an inhibition of 11%.

Regarding `CC(C)[C@H](CO)Nc1nc(Nc2cccc(Cl)c2)c2ncn(C(C)C)c2n1`, the inhibition stood at 28%.

As to `CN(C)c1ccc(/C=C2\C(=O)Nc3ccccc32)cc1`, the inhibition was determined as 9%.

`O=C1NC(=O)c2c1c1c3ccccc3[nH]c1c1[nH]c3ccccc3c21`: the inhibition worked out at 44%.

The compound `COc1cc2ncn(-c3cc(OCc4ccccc4C(F)(F)F)c(C(N)=O)s3)c2cc1OC` had an inhibition of 57%.

As to `Cc1ccc(NC(=O)c2cccc(N(C)C)c2)cc1NC(=O)c1ccc(O)cc1`, the inhibition is 0%.

In turn, `COc1cc2ncnc(Nc3ccc(Cl)cc3F)c2cc1OC` had an inhibition of 7%.

Take `O=C1NC(=O)c2cc(Nc3ccc(F)cc3)c(Nc3ccc(F)cc3)cc21`: the inhibition turned out to be 19%.

Turning to `N#C/C(=C\c1ccc(O)c(O)c1)C(N)=S`, the inhibition worked out at 11%.

Compound `CC(C)(C)n1nc(-c2cccc3ccccc23)c2c(N)ncnc21` yielded an inhibition of 60%.

In turn, `C/C(O)=C(\C#N)C(=O)Nc1cc(Br)ccc1Br` returned an inhibition of 8%.

Compound `COc1cc2c(Nc3ccc(NC(=O)c4ccccc4)cc3)ncnc2cc1OCCCN1CCOCC1` showed an inhibition of 15%.

In the case of `Cc1cc(C)c(/C=C2\C(=O)Nc3ccccc32)[nH]1`, the inhibition amounted to 22%.

On to `N#CC(=C(\N)Sc1ccccc1N)/C(C#N)=C(/N)Sc1ccccc1N`, for which the inhibition was determined as 0%.

Turning to `CC[C@@H](CO)Nc1nc(NCc2ccccc2)c2ncn(C(C)C)c2n1`, the inhibition is 5%.

`Nc1ncnc2[nH]nc(Nc3ccc(F)cc3)c12` registered an inhibition of 11%.

`CC1=C(O)C(=O)[C@@H]2OC2C1=O` (some centres not stated) showed an inhibition of 3%.

A word on the inhibition: it is the percentage by which the read-out fell short of the control. Read a low inhibition as a weak effect.
